Laboratory results as given in ChEMBL document CHEMBL3822420, “New peptide deformylase inhibitors design, synthesis and pharmacokinetic assessment” (Bioorg Med Chem Lett, 2016).
≈ marks a conversion by molar mass, not a printed value.

Columns and labels:
[1] = AUC (0 to t) in Sprague-Dawley rat at 2 mg/kg, iv; assay type: ADME, organism-based; conditions: Sprague-Dawley, in vivo
[2] = Tmax in Sprague-Dawley rat at 2 mg/kg, iv; assay type: ADME, organism-based; conditions: in vivo
[3] = Tmax in Sprague-Dawley rat at 10 mg/kg, po; assay type: ADME, organism-based; conditions: in vivo
[4] = Cmax in Sprague-Dawley rat at 2 mg/kg, iv; assay type: ADME, organism-based; parameters: dose 2 mg/kg, route intravenous; conditions: in vivo
[5] = Cmax in Sprague-Dawley rat at 10 mg/kg, po; assay type: ADME, organism-based; parameters: dose 10 mg/kg, route oral; conditions: in vivo
Staphylococcus aureus [6] = experiment: Antibacterial activity against methicillin-resistant Staphylococcus aureus 14-1; assay type: functional
Staphylococcus aureus [7] = experiment: Antibacterial activity against methicillin-resistant Staphylococcus aureus 14-2; assay type: functional
Staphylococcus aureus [8] = experiment: Antibacterial activity against methicillin-resistant Staphylococcus aureus 14-4; assay type: functional
Staphylococcus aureus [9] = experiment: Antibacterial activity against methicillin-resistant Staphylococcus aureus 14-5; assay type: functional
Staphylococcus aureus [10] = experiment: Antibacterial activity against methicillin-sensitive Staphylococcus aureus 14-1; assay type: functional
Staphylococcus aureus [11] = experiment: Antibacterial activity against methicillin-sensitive Staphylococcus aureus 14-2; assay type: functional
Staphylococcus aureus [12] = experiment: Antibacterial activity against methicillin-sensitive Staphylococcus aureus 14-3; assay type: functional
Staphylococcus aureus [13] = experiment: Antibacterial activity against methicillin-sensitive Staphylococcus aureus 14-4; assay type: functional
[14] = test system: Staphylococcus epidermidis; experiment: Antibacterial activity against methicillin-resistant Staphylococcus epidermidis 14-1; assay type: functional
[15] = test system: Staphylococcus epidermidis; experiment: Antibacterial activity against methicillin-resistant Staphylococcus epidermidis 14-4; assay type: functional
[16] = test system: Staphylococcus epidermidis; experiment: Antibacterial activity against methicillin-sensitive Staphylococcus epidermidis 14-1; assay type: functional
[17] = test system: Staphylococcus epidermidis; experiment: Antibacterial activity against methicillin-sensitive Staphylococcus epidermidis 14-2; assay type: functional
[18] = test system: Staphylococcus epidermidis; experiment: Antibacterial activity against methicillin-sensitive Staphylococcus epidermidis 14-3; assay type: functional
Enterococcus faecalis [19] = experiment: Antibacterial activity against Enterococcus faecalis 14-1; assay type: functional
Enterococcus faecalis [20] = experiment: Antibacterial activity against Enterococcus faecalis 14-2; assay type: functional
Enterococcus faecalis [21] = experiment: Antibacterial activity against Enterococcus faecalis 14-3; assay type: functional
Enterococcus faecalis [22] = experiment: Antibacterial activity against Enterococcus faecalis 14-5; assay type: functional
Escherichia coli [23] = experiment: Antibacterial activity against Escherichia coli 14-1; assay type: functional
Escherichia coli [24] = experiment: Antibacterial activity against Escherichia coli 14-2; assay type: functional
Escherichia coli [25] = experiment: Antibacterial activity against Escherichia coli 14-1 expressing extended-spectrum beta-lactamase; assay type: functional
Escherichia coli [26] = experiment: Antibacterial activity against Escherichia coli 14-2 expressing extended-spectrum beta-lactamase; assay type: functional
[27] = AUC (0 to t) in Sprague-Dawley rat at 10 mg/kg, po; assay type: ADME, organism-based; conditions: in vivo
[28] = AUC (0 to infinity) in Sprague-Dawley rat at 2 mg/kg, iv; assay type: ADME, organism-based; parameters: dose 2 mg/kg, route intravenous, time infinity; conditions: Sprague-Dawley, in vivo
Rattus norvegicus [29] = experiment: (§1) AUC (0 to infinity) in Sprague-Dawley rat at 10 mg/kg, po; assay type: ADME, organism-based; parameters: dose 10 mg/kg, time infinity, route oral; conditions: in vivo
[30] = Half life in Sprague-Dawley rat at 2 mg/kg, iv; assay type: ADME, organism-based; conditions: in vivo
Rattus norvegicus [31] = experiment: (§2) Half life in Sprague-Dawley rat at 10 mg/kg, po; assay type: ADME, organism-based; conditions: in vivo
[32] = MRT (0 to t) in Sprague-Dawley rat at 2 mg/kg, iv; assay type: ADME, organism-based; conditions: in vivo
[33] = MRT (0 to t) in Sprague-Dawley rat at 10 mg/kg, po; assay type: ADME, organism-based; conditions: in vivo
[34] = Clearance in Sprague-Dawley rat at 2 mg/kg, iv; assay type: ADME, organism-based; conditions: in vivo
Rattus norvegicus [35] = experiment: (§3) Clearance in Sprague-Dawley rat at 10 mg/kg, po; assay type: ADME, organism-based; conditions: in vivo
[36] = Volume of distribution at steady state in Sprague-Dawley rat at 2 mg/kg, iv; assay type: ADME, organism-based; conditions: in vivo, read-out: Vdss
Rattus norvegicus [37] = experiment: Volume of distribution at steady state in Sprague-Dawley rat at 10 mg/kg, po; assay type: ADME, organism-based; conditions: in vivo
[38] = Oral bioavailability in Sprague-Dawley rat at 10 mg/kg; assay type: ADME, organism-based; conditions: in vivo
[39] = test system: Staphylococcus epidermidis; experiment: Antibacterial activity against methicillin-resistant Staphylococcus epidermidis 14-2; assay type: functional
[40] = test system: Staphylococcus epidermidis; experiment: Antibacterial activity against methicillin-resistant Staphylococcus epidermidis 14-3; assay type: functional
[41] = as §1; assay type: ADME, organism-based; parameters: dose 10 mg/kg, time infinity, route oral; conditions: Sprague-Dawley, in vivo
[42] = as §2; assay type: ADME, organism-based; conditions: Sprague-Dawley, in vivo
[43] = as §3; assay type: ADME, organism-based; conditions: Sprague-Dawley, in vivo

Compound	AUC(0-t) [1]	Tmax [2]	Tmax [3]	Cmax [4]	Cmax [5]	MIC (Staphylococcus aureus [6])	MIC (Staphylococcus aureus [7])	MIC (Staphylococcus aureus [8])	MIC (Staphylococcus aureus [9])	MIC (Staphylococcus aureus [10])	MIC (Staphylococcus aureus [11])	MIC (Staphylococcus aureus [12])	MIC (Staphylococcus aureus [13])	MIC [14]	MIC [15]	MIC [16]	MIC [17]	MIC [18]	MIC (Enterococcus faecalis [19])	MIC (Enterococcus faecalis [20])	also measured
CCCC[C@H](CN(O)C=O)C(=O)N1CC2(CC2)C[C@H]1C(=O)Nc1ccc(C)c(Nc2nccc(-c3cccnc3)n2)c1	881 ng·h/mL	4.8 min	15 min	1080 ng/mL	100 ng/mL	0.015 µg/mL (≈ 0.0262 µM)	0.015 µg/mL (≈ 0.0262 µM)	< 0.008 µg/mL	< 0.008 µg/mL	0.015 µg/mL (≈ 0.0262 µM)	0.015 µg/mL (≈ 0.0262 µM)	0.015 µg/mL (≈ 0.0262 µM)	0.015 µg/mL (≈ 0.0262 µM)	< 0.008 µg/mL	< 0.008 µg/mL	0.015 µg/mL (≈ 0.0262 µM)	< 0.008 µg/mL	< 0.008 µg/mL	0.03 µg/mL (≈ 0.0525 µM)	0.015 µg/mL (≈ 0.0262 µM)	MIC (Enterococcus faecalis [21]): 0.03 µg/mL (≈ 0.0525 µM); MIC (Enterococcus faecalis [22]): > 128 µg/mL; MIC (Escherichia coli [23]): > 128 µg/mL; MIC (Escherichia coli [24]): > 128 µg/mL; MIC (Escherichia coli [25]): 4 µg/mL (≈ 7 µM); MIC (Escherichia coli [26]): > 128 µg/mL; AUC(0-t) [27]: 126 ng·h/mL; AUC(0-inf) [28]: 892 ng·h/mL; AUC (Rattus norvegicus [29]): 134 ng·h/mL; half-life [30]: 216 min; t1/2 (Rattus norvegicus [31]): 2.24 h; MRT last [32]: 69 min; MRT last [33]: 3.32 h; clearance [34]: 37.7 mL/min/kg; CL (Rattus norvegicus [35]): 334 mL/h/kg; Vd [36]: 2.6 L/kg; Vdss (Rattus norvegicus [37]): 1772 L/kg; bioavailability [38]: 3%
CCCC[C@H](CN(O)C=O)C(=O)N1CC2(CC2)C[C@H]1c1nc(-c2cccnc2)no1	654 ng·h/mL	4.8 min	15 min	929 ng/mL	893 ng/mL	0.5 µg/mL (≈ 1.21 µM)	0.5 µg/mL (≈ 1.21 µM)	0.5 µg/mL (≈ 1.21 µM)	0.5 µg/mL (≈ 1.21 µM)	0.5 µg/mL (≈ 1.21 µM)	0.5 µg/mL (≈ 1.21 µM)	0.5 µg/mL (≈ 1.21 µM)	0.5 µg/mL (≈ 1.21 µM)	0.25 µg/mL (≈ 0.605 µM)	0.5 µg/mL (≈ 1.21 µM)	0.125 µg/mL (≈ 0.302 µM)	0.5 µg/mL (≈ 1.21 µM)	0.125 µg/mL (≈ 0.302 µM)	2 µg/mL (≈ 4.84 µM)	2 µg/mL (≈ 4.84 µM)	MIC [39]: 0.25 µg/mL (≈ 0.605 µM); MIC [40]: 0.125 µg/mL (≈ 0.302 µM); MIC (Enterococcus faecalis [21]): 2 µg/mL (≈ 4.84 µM); MIC (Enterococcus faecalis [22]): 2 µg/mL (≈ 4.84 µM); MIC (Escherichia coli [23]): 64 µg/mL (≈ 155 µM); MIC (Escherichia coli [24]): 64 µg/mL (≈ 155 µM); MIC (Escherichia coli [25]): 1 µg/mL (≈ 2.42 µM); MIC (Escherichia coli [26]): 32 µg/mL (≈ 77.4 µM); AUC(0-t) [27]: 1280 ng·h/mL; AUC(0-inf) [28]: 657 ng·h/mL; AUC(0-inf) [41]: 1300 ng·h/mL; half-life [30]: 66.6 min; half-life [42]: 76.8 min; MRT last [32]: 36.6 min; MRT last [33]: 1.68 h; clearance [34]: 51.2 mL/min/kg; CL/F [43]: 136 mL/min/kg; Vd [36]: 1.9 L/kg; Vdss (Rattus norvegicus [37]): 15.1 L/kg; bioavailability [38]: 40%
